molecular target: T1, TYK2 (Homo sapiens, UniProt P29597); test: TYK2 MSD degradation in OCI-LY10 cells; assay type: cell-based; settings: OCI-LY10 cells, 4 to 24 hours incubation
T1 construct: Degradation of TYK2 in cells was quantitatively measured using Meso Scale Discovery (MSD) technology; endogenous in cells; host or cells: OCI-LY10
Method in brief: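 Cellular TYK2 levels were measured by Meso Scale Discovery sandwich detection in RIPA lysates of OCI-LY10 cells exposed 4 to 24 hours at 37° C to nine 1:3 compound doses starting at 1 to 10 μM final; dose-response fitted by four-parameter regression.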

T1 sequence (P29597 whole entry): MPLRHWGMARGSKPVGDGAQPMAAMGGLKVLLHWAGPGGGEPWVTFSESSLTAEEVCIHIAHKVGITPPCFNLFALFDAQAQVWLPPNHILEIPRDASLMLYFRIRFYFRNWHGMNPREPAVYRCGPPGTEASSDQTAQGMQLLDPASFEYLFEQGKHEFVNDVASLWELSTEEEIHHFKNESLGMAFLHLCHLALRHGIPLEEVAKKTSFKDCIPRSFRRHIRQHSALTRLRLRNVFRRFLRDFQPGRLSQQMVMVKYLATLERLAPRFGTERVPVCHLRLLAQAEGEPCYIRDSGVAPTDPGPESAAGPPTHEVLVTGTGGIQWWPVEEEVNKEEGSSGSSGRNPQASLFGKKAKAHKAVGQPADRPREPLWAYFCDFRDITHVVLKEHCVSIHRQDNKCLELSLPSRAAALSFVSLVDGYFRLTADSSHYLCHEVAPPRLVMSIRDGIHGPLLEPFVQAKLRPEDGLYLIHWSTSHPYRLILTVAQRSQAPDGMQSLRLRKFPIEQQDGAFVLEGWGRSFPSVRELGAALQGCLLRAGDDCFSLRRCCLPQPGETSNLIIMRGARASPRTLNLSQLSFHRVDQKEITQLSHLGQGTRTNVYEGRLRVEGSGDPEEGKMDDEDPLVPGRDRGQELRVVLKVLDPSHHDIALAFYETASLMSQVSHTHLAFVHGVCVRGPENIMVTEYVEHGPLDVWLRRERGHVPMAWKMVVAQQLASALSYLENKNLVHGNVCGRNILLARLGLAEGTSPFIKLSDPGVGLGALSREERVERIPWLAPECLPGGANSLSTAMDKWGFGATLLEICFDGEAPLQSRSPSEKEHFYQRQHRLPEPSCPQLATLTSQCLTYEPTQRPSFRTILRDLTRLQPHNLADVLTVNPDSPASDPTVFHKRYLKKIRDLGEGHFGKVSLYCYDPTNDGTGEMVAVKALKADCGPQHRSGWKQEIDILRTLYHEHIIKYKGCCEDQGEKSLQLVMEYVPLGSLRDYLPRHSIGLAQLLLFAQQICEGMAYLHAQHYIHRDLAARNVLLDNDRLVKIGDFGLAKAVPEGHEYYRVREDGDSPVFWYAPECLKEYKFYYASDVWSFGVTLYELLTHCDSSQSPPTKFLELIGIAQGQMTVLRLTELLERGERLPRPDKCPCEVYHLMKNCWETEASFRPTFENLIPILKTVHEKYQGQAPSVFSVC

| SMILES | TYK2 MSD OCI-LY10 Dmax % |
| --- | --- |
| CNc1cc(N2CCc3c(-c4cc(CN5CCN(c6cc7c(cc6F)c(N6CCC(=O)NC6=O)nn7C)CC5)ccn4)cccc32)nn2c(C(=O)N[C@@H]3C[C@@H]3F)cnc12 [I-709] | D (D (<50%)) |
| CNc1cc(N2CCc3c(CN4CCC(N5CCC(N(C)c6ccc(Cl)c(N7CCC(=O)NC7=O)c6)CC5)C(F)(F)C4)cccc32)nn2c(C(=O)N[C@@H]3C[C@@H]3F)cnc12 (stereo partly drawn) [I-758] | B (B (90 to >75%)) |
| CNc1cc(N2CCc3c(CN4CCC(CCN5CCN(C(=O)c6ccc(Cl)c(N7CCC(=O)NC7=O)c6)CC5)CC4)cccc32)nn2c(C(=O)N[C@@H]3C[C@@H]3F)cnc12 [I-717] | C (C (75 to 50%)) |
| CNc1cc(N2CCc3c(CCN4CCC(N5CCN(C(=O)c6ccc(Cl)c(N7CCC(=O)NC7=O)c6)CC5)C(F)(F)C4)cccc32)nn2c(C(=O)N[C@@H]3C[C@@H]3F)cnc12 (stereo partly drawn) [I-743] | B (B (90 to >75%)) |
| CNc1cc(N2CCc3c(-c4cnc(CC5CC6(CCN(C(=O)c7cc(C)c(Cl)c(N8CCC(=O)NC8=O)c7)CC6)C5)cn4)cccc32)nn2c(C(=O)N[C@@H]3C[C@@H]3F)cnc12 [I-760] | B (B (90 to >75%)) |
| CNc1cc(N2CCc3c(-c4ccc(N5CC6(CCN(Cc7ccc(C8CCC(=O)NC8=O)c(Cl)c7)CC6)C5)cn4)cccc32)nn2c(C(=O)NC3CC3F)cnc12 (mixture of isomers) [I-445] | B (B (90 to >75%)) |
| CNc1cc(-c2cn(C3CCN(CCC4CCN(C(=O)c5ccc(Cl)c(N6CCC(=O)NC6=O)c5)CC4)CC3)c3ccccc23)nn2c(C(=O)N[C@@H]3C[C@@H]3F)cnc12 [I-779] | D (D (<50%)) |
| CNc1cc(N2CCc3c(CN4CCC(N5CC(CN6CCN(C(=O)c7ccc(Cl)c(N8CCC(=O)NC8=O)c7)CC6)C5)C(F)(F)C4)cccc32)nn2c(C(=O)N[C@@H]3C[C@@H]3F)cnc12 (stereo partly drawn) [I-710] | B (B (90 to >75%)) |
| CNc1cc(N2CCc3c(CN4CCC(N5CC(CC6CCN(C(=O)c7ccc(Cl)c(N8CCC(=O)NC8=O)c7)CC6)C5)C(F)(F)C4)cccc32)nn2c(C(=O)N[C@@H]3C[C@@H]3F)cnc12 (stereo partly drawn) [I-753] | A (A (>90%)) |
| CNc1cc(N2CCc3c(CN4CCC(N5CC(CN6CCN(c7ccc8c(c7)n(C)c(=O)n8C7CCC(=O)NC7=O)CC6)C5)C(F)(F)C4)cccc32)nn2c(C(=O)N[C@@H]3C[C@@H]3F)cnc12 (stereo partly drawn) [I-468] | B (B (90 to >75%)) |

same assay, conditions: OCI-LY10 cells, 4 to 24 hours incubation, read-out: TYK2 MSD OCI-LY10 Rel-DC50

| SMILES | DC50 |
| --- | --- |
| CNc1cc(N2CCc3c(-c4cc(CN5CCN(c6cc7c(cc6F)c(N6CCC(=O)NC6=O)nn7C)CC5)ccn4)cccc32)nn2c(C(=O)N[C@@H]3C[C@@H]3F)cnc12 [I-709] | < 10 nM |
| CNc1cc(N2CCc3c(CN4CCC(N5CCC(N(C)c6ccc(Cl)c(N7CCC(=O)NC7=O)c6)CC5)C(F)(F)C4)cccc32)nn2c(C(=O)N[C@@H]3C[C@@H]3F)cnc12 (stereo partly drawn) [I-758] | < 10 nM |
| CNc1cc(N2CCc3c(CN4CCC(CCN5CCN(C(=O)c6ccc(Cl)c(N7CCC(=O)NC7=O)c6)CC5)CC4)cccc32)nn2c(C(=O)N[C@@H]3C[C@@H]3F)cnc12 [I-717] | < 10 nM |
| CNc1cc(N2CCc3c(CCN4CCC(N5CCN(C(=O)c6ccc(Cl)c(N7CCC(=O)NC7=O)c6)CC5)C(F)(F)C4)cccc32)nn2c(C(=O)N[C@@H]3C[C@@H]3F)cnc12 (stereo partly drawn) [I-743] | < 10 nM |
| CNc1cc(N2CCc3c(-c4cnc(CC5CC6(CCN(C(=O)c7cc(C)c(Cl)c(N8CCC(=O)NC8=O)c7)CC6)C5)cn4)cccc32)nn2c(C(=O)N[C@@H]3C[C@@H]3F)cnc12 [I-760] | < 10 nM |
| CNc1cc(N2CCc3c(-c4ccc(N5CC6(CCN(Cc7ccc(C8CCC(=O)NC8=O)c(Cl)c7)CC6)C5)cn4)cccc32)nn2c(C(=O)NC3CC3F)cnc12 (mixture of isomers) [I-445] | < 10 nM |
| CNc1cc(-c2cn(C3CCN(CCC4CCN(C(=O)c5ccc(Cl)c(N6CCC(=O)NC6=O)c5)CC4)CC3)c3ccccc23)nn2c(C(=O)N[C@@H]3C[C@@H]3F)cnc12 [I-779] | > 100 nM |
| CNc1cc(N2CCc3c(CN4CCC(N5CC(CN6CCN(C(=O)c7ccc(Cl)c(N8CCC(=O)NC8=O)c7)CC6)C5)C(F)(F)C4)cccc32)nn2c(C(=O)N[C@@H]3C[C@@H]3F)cnc12 (stereo partly drawn) [I-710] | < 10 nM |
| CNc1cc(N2CCc3c(CN4CCC(N5CC(CC6CCN(C(=O)c7ccc(Cl)c(N8CCC(=O)NC8=O)c7)CC6)C5)C(F)(F)C4)cccc32)nn2c(C(=O)N[C@@H]3C[C@@H]3F)cnc12 (stereo partly drawn) [I-753] | < 1 nM |
| CNc1cc(N2CCc3c(CN4CCC(N5CC(CN6CCN(c7ccc8c(c7)n(C)c(=O)n8C7CCC(=O)NC7=O)CC6)C5)C(F)(F)C4)cccc32)nn2c(C(=O)N[C@@H]3C[C@@H]3F)cnc12 (stereo partly drawn) [I-468] | < 1 nM |

same assay, conditions: TYK2 degradation in OCI-LY10 cells, 4 to 24 hours incubation

| SMILES | TYK2 MSD OCI-LY10 Dmax % |
| --- | --- |
| CNc1cc(N2CCc3c(-c4ccc(N5CCC6(CCN(C(=O)c7ccc(N8CCC(=O)NC8=O)c(Cl)c7)CC6)CC5)cn4)cccc32)nn2c(C(=O)N[C@@H]3C[C@@H]3F)cnc12 [I-885] | C (C (75 to 50%)) |
| CNc1cc(N2CCc3c(-c4ccc(CN5CCC(N6CC(N7CCN(c8ccc9c(c8)n(C)c(=O)n9C8CCC(=O)NC8=O)CC7)C6)C(F)(F)C5)cn4)cccc32)nn2c(C(=O)N[C@@H]3C[C@@H]3F)cnc12 (stereo partly drawn) [I-282] | B (B (90 to >75%)) |
| CNc1cc(N2CCc3c(-c4ccc(CN5CCC6(CCN(C(=O)c7ccc(C(F)(F)F)c(N8CCC(=O)NC8=O)c7)CC6)C(F)(F)C5)cn4)cccc32)nn2c(C(=O)N[C@@H]3C[C@@H]3F)cnc12 [I-978] | D (D (<50%)) |
| CNc1cc(N2CCc3c(CN4CCC(N5CCN(CCc6ccc(Cl)c(C7CCC(=O)NC7=O)c6)CC5)C(F)(F)C4)cccc32)nn2c(C(=O)NC3CC3F)cnc12 (stereo not drawn) [I-900] | B (B (90 to >75%)) |
| CNc1cc(N2CCc3c(CN4CCC(N5CC6(CCN(C(=O)c7cc(C)c(Cl)c(N8CCC(=O)NC8=O)c7)CC6)C5)C(F)(F)C4)cccc32)nn2c(C(=O)N[C@@H]3CC[C@H]3OC)cnc12 (stereo partly drawn) [I-1073] | A (A (>90%)) |
| CNc1cc(N2CCc3c(CN4CCC(N5CCC6(CC5)CN(C(=O)c5cc(N7CCC(=O)NC7=O)c(Cl)cn5)C6)C(F)(F)C4)cccc32)nn2c(C(=O)N[C@@H]3CC[C@H]3OC)cnc12 (stereo partly drawn) [I-1158] | A (A (>90%)) |
| CNc1cc(N2CCc3c(-c4ncc(CN5CC6(CCN(C(=O)c7cc(N8CCC(=O)NC8=O)c(Cl)c(C)n7)CC6(F)F)C5)cc4F)cc(F)cc32)nn2c(C(=O)N[C@@H]3C[C@@H]3F)cnc12 [I-1150] | A (A (>90%)) |
| CNc1cc(N2CCc3c(C#CCN4CCC(N5CCN(C(=O)c6ccc(Cl)c(N7CCC(=O)NC7=O)c6)CC5)C(F)(F)C4)cccc32)nn2c(C(=O)NC3CC3F)cnc12 (stereo not drawn) [I-854] | A (A (>90%)) |

same assay, conditions: TYK2 degradation in OCI-LY10 cells, 4 to 24 hours incubation, read-out: TYK2 MSD OCI-LY10 Rel-DC50

| SMILES | DC50 |
| --- | --- |
| CNc1cc(N2CCc3c(-c4ccc(N5CCC6(CCN(C(=O)c7ccc(N8CCC(=O)NC8=O)c(Cl)c7)CC6)CC5)cn4)cccc32)nn2c(C(=O)N[C@@H]3C[C@@H]3F)cnc12 [I-885] | 10 to 100 nM |
| CNc1cc(N2CCc3c(-c4ccc(CN5CCC(N6CC(N7CCN(c8ccc9c(c8)n(C)c(=O)n9C8CCC(=O)NC8=O)CC7)C6)C(F)(F)C5)cn4)cccc32)nn2c(C(=O)N[C@@H]3C[C@@H]3F)cnc12 (stereo partly drawn) [I-282] | < 1 nM |
| CNc1cc(N2CCc3c(-c4ccc(CN5CCC6(CCN(C(=O)c7ccc(C(F)(F)F)c(N8CCC(=O)NC8=O)c7)CC6)C(F)(F)C5)cn4)cccc32)nn2c(C(=O)N[C@@H]3C[C@@H]3F)cnc12 [I-978] | < 10 nM |
| CNc1cc(N2CCc3c(CN4CCC(N5CCN(CCc6ccc(Cl)c(C7CCC(=O)NC7=O)c6)CC5)C(F)(F)C4)cccc32)nn2c(C(=O)NC3CC3F)cnc12 (stereo not drawn) [I-900] | < 10 nM |
| CNc1cc(N2CCc3c(CN4CCC(N5CC6(CCN(C(=O)c7cc(C)c(Cl)c(N8CCC(=O)NC8=O)c7)CC6)C5)C(F)(F)C4)cccc32)nn2c(C(=O)N[C@@H]3CC[C@H]3OC)cnc12 (stereo partly drawn) [I-1073] | < 1 nM |
| CNc1cc(N2CCc3c(CN4CCC(N5CCC6(CC5)CN(C(=O)c5cc(N7CCC(=O)NC7=O)c(Cl)cn5)C6)C(F)(F)C4)cccc32)nn2c(C(=O)N[C@@H]3CC[C@H]3OC)cnc12 (stereo partly drawn) [I-1158] | < 1 nM |
| CNc1cc(N2CCc3c(-c4ncc(CN5CC6(CCN(C(=O)c7cc(N8CCC(=O)NC8=O)c(Cl)c(C)n7)CC6(F)F)C5)cc4F)cc(F)cc32)nn2c(C(=O)N[C@@H]3C[C@@H]3F)cnc12 [I-1150] | < 1 nM |
| CNc1cc(N2CCc3c(C#CCN4CCC(N5CCN(C(=O)c6ccc(Cl)c(N7CCC(=O)NC7=O)c6)CC5)C(F)(F)C4)cccc32)nn2c(C(=O)NC3CC3F)cnc12 (stereo not drawn) [I-854] | < 1 nM |

— patent US20260125400A1, “TYK2 DEGRADERS AND USES THEREOF” (Kymera Therapeutics, Inc., priority 2023, published 2026)
